Laboratory results reported in ChEMBL document CHEMBL1201862, “PubChem BioAssay data set” (2004).
One block for each compound: values may come before it. Calls of active or inactive are those of the source.

Tests used:
Cytochrome P450 2C9 = Cytochrome P450 2C9 (Homo sapiens, UniProt P11712); conditions: Potency
Protein Wnt-3a = Protein Wnt-3a (Mus musculus, UniProt P27467); assay: Wnt3a-driven reporter signaling inhibition, dose response, selectivity assay for Gli-SUFU antagonist project, Wnt-LIGHT cells, luminescence (AID 651570); type: functional; conditions: read-out: IC50_Mean;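 also: Wnt-LIGHT reporter cells stimulated with conditioned medium from Wnt3a-producing cells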
[1] = cytotoxicity in HEK-293T cells, dose response, cytotoxicity control for BCR NF-kB inhibitor project, luminescence, B-cell screen hits (AID 489021); type: functional, cell-based;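 also: HEK-293T cells carrying an NF-kB luciferase reporter; cells exposed to compound for about 14 hours before viability readout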
Insulin-degrading enzyme = target: T1, Insulin-degrading enzyme (Homo sapiens, UniProt P14735); assay: Dose Response: Fluorescence polarization-based cell-based high throughput dose response assay for inhibitors of insulin-degrading enzyme (IDE). [Related pubchem assays: 434962 (Primary screen (IDE inhibitors in singlicate)), 449730 (Counterscreen (Cytotoxicity in triplicate)), 435028 (Confirmation (IDE inhibitors in triplicate)), 434984 (Summary …; type: functional
T1 sequence (P14735 whole entry): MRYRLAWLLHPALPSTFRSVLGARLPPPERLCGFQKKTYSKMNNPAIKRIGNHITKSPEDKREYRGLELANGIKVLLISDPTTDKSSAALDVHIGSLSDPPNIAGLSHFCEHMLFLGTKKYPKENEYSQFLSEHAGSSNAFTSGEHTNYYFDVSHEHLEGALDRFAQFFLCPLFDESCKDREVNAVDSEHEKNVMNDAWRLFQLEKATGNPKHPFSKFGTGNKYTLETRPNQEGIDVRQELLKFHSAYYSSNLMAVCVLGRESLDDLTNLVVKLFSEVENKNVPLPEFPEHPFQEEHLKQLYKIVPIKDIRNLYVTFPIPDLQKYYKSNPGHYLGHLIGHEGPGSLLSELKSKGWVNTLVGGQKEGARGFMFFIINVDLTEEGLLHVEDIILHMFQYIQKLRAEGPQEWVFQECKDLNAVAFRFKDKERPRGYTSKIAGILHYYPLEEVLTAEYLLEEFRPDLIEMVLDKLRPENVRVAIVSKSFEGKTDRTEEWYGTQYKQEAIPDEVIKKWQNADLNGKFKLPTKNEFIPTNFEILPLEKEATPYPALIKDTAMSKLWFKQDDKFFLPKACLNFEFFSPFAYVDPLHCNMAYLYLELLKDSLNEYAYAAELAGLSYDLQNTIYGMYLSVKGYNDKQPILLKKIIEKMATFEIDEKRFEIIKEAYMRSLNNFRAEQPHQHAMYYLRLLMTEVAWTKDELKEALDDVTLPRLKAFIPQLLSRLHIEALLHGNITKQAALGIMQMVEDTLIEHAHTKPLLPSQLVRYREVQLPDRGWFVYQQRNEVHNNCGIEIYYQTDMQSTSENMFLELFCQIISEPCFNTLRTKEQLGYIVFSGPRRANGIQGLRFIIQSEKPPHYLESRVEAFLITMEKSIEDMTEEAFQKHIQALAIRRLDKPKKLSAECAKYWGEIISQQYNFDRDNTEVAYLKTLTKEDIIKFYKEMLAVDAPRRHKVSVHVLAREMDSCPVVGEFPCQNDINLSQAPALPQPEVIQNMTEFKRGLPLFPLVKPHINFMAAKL

[2] = Counterscreen for IDE inhibitors: Luminescence-based cell-based high throughput dose response assay to identify compounds that are cytotoxic to HEK cells. [Related pubchem assays: 434962 (Primary screen (IDE inhibitors in singlicate)), 449730 (Counterscreen (Cytotoxicity in triplicate)), 435028 (Confirmation (IDE inhibitors in triplicate)) …; type: functional; conditions: HEK293
[3] = target: G2/mitotic-specific cyclin-B1 (Homo sapiens, UniProt P14635); assay: Counterscreen assay for inhibitors of Wee1 degradation: dose response cell-based assay to identify inhibitors of cyclin B degradation. [Related pubchem assays: 1410, 1321 ]; type: functional
Wee1-like protein kinase = Wee1-like protein kinase (Homo sapiens, UniProt P30291); assay: Dose Response Cell-based Assay for Inhibitors of Wee1 Degradation. [Related pubchem assays: 1410, 1321 ]; type: functional
[4] = target: Photoreceptor-specific nuclear receptor (Homo sapiens, UniProt Q9Y5X4); type: functional;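 also: potency for compounds that break the NR2E3 corepressor complex and count as activators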
[5] = target: Peroxisome proliferator-activated receptor gamma/Nuclear receptor corepressor 2 (Homo sapiens, UniProt P37231+Q9Y618); type: functional
Sequence of Peroxisome proliferator-activated receptor gamma/Nuclear receptor corepressor 2 (P37231 whole entry): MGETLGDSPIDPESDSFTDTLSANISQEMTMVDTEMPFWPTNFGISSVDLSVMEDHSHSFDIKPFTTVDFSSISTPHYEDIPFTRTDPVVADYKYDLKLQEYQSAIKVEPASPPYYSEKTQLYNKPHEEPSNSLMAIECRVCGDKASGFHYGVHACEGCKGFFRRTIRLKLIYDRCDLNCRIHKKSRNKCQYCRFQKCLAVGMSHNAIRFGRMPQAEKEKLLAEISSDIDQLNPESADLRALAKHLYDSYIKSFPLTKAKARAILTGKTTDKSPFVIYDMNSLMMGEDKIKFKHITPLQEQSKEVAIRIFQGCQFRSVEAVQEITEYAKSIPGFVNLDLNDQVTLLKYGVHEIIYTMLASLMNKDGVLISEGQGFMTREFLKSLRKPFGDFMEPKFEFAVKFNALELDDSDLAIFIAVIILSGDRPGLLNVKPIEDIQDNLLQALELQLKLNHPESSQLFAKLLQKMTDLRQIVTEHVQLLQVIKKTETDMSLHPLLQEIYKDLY
Sequence of Peroxisome proliferator-activated receptor gamma/Nuclear receptor corepressor 2 (Q9Y618 whole entry): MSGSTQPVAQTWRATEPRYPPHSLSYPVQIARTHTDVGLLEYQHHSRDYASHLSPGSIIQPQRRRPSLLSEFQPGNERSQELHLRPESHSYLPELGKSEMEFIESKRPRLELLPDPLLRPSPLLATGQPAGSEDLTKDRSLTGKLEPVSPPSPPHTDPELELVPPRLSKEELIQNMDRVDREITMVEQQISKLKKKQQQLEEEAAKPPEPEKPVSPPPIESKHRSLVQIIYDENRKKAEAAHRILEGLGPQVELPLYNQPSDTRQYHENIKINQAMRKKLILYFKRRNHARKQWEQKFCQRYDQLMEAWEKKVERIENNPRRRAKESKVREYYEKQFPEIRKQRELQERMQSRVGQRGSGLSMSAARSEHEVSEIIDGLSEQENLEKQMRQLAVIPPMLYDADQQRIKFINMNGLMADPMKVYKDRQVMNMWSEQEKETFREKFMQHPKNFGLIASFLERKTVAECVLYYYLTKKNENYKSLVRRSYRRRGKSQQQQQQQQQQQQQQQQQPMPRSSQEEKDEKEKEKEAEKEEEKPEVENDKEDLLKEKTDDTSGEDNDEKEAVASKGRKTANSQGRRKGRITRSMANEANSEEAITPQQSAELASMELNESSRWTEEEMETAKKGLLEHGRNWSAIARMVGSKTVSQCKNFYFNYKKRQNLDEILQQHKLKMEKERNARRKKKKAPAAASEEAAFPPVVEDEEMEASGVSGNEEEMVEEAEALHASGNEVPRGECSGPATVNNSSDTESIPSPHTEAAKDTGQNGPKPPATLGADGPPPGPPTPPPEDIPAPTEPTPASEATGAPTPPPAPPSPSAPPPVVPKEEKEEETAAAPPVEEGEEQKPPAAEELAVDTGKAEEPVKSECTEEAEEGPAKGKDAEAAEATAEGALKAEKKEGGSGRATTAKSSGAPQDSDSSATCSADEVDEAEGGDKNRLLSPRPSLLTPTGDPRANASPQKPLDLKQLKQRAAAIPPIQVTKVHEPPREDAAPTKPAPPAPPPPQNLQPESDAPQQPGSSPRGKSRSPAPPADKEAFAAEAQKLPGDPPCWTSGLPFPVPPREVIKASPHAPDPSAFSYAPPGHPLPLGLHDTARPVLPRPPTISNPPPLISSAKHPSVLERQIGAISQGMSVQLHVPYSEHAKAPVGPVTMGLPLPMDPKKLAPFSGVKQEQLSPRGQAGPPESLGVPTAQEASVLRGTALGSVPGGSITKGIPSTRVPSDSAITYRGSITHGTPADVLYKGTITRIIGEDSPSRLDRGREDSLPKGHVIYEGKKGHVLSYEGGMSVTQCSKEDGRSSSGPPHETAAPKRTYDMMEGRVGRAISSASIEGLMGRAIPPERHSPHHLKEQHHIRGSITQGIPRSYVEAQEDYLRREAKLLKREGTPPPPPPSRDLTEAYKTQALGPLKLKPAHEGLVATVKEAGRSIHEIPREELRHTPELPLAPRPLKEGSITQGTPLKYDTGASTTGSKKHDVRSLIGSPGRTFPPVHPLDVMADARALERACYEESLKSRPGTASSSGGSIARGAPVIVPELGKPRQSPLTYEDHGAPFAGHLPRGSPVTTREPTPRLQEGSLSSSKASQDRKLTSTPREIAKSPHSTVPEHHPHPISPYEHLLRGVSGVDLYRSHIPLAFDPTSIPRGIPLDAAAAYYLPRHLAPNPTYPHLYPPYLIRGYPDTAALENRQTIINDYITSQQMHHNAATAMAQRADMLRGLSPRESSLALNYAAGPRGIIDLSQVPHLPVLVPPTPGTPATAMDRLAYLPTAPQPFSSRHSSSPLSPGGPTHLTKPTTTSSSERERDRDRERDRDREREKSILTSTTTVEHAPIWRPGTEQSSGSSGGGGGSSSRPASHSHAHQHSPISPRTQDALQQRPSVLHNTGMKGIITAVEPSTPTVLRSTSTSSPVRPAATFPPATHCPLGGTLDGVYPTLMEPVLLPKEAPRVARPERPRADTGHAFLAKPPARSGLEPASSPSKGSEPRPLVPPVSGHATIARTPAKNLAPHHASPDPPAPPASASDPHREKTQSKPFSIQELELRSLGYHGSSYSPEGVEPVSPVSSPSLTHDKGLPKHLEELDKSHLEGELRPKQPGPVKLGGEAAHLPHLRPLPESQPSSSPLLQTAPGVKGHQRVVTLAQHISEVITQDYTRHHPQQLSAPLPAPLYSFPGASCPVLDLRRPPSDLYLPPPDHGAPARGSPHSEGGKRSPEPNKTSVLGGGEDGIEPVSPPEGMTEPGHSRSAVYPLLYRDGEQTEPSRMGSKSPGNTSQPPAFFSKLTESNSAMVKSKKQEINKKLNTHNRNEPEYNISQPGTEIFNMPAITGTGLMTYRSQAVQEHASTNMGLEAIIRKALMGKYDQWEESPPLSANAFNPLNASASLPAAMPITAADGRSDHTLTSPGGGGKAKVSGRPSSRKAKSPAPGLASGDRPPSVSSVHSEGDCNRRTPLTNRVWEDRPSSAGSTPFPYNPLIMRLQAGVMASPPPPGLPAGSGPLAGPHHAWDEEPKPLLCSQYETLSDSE

Sequence of Cytochrome P450 2C9 (P11712 whole entry): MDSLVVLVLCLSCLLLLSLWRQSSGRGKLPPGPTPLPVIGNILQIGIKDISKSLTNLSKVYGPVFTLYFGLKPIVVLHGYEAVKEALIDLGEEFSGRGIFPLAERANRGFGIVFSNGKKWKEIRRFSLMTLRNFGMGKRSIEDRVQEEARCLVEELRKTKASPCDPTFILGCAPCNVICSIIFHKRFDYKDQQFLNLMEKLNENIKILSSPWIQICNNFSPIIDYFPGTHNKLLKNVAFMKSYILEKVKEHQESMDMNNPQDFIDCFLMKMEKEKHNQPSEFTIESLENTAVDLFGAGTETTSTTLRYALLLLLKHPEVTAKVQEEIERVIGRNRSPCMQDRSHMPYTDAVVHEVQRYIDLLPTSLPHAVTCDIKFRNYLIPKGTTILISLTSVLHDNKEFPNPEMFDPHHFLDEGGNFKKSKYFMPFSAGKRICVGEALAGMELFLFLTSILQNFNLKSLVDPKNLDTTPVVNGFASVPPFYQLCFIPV
Sequence of G2/mitotic-specific cyclin-B1 (P14635 whole entry): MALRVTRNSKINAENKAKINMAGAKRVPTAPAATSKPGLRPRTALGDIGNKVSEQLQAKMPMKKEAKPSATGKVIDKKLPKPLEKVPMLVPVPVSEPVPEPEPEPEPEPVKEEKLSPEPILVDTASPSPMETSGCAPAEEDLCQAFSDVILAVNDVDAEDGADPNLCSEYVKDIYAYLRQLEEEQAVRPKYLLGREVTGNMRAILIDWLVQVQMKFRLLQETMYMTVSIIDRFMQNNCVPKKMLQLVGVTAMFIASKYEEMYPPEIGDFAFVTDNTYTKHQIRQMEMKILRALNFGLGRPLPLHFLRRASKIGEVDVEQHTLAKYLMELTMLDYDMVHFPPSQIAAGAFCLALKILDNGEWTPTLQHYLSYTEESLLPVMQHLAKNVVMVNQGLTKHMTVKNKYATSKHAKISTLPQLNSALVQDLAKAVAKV
Sequence of Protein Wnt-3a (P27467 whole entry): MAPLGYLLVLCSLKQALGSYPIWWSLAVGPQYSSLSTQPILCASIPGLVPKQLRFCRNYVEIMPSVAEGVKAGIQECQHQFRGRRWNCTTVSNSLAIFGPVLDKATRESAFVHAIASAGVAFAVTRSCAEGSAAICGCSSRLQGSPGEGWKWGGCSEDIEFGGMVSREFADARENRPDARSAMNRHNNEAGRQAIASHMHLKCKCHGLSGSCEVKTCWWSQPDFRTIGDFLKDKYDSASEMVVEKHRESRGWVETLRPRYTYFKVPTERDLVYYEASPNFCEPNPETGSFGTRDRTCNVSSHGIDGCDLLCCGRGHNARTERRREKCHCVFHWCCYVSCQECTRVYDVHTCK
Sequence of Photoreceptor-specific nuclear receptor (Q9Y5X4 whole entry): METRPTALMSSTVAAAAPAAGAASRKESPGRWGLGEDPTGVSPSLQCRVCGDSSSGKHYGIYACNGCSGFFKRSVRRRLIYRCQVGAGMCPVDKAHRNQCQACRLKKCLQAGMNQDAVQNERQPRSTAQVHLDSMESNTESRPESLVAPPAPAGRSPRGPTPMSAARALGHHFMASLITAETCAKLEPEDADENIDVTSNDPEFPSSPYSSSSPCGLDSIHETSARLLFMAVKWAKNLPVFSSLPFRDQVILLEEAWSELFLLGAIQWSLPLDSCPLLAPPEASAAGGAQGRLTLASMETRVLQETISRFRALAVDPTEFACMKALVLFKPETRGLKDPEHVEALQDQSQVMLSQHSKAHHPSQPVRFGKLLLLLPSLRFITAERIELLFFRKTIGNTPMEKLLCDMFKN

AC50 (Cytochrome P450 2C9): 5.01 µM (inconclusive)
SMILES: CC(C)(C)c1ccc(OC2C(O)COC2/C=C/C#Cc2ccccc2)cc1 (centres undefined)

SMILES: CC1CCN(c2c(NCc3ccc(C(=O)N4c5ccccc5CC4C)cc3)c(=O)c2=O)CC1 (centres undefined)
IC50 (Protein Wnt-3a): 16.4 µM (active)
IC50 [1]: > 80 µM (inactive)
IC50 (Insulin-degrading enzyme): 2.98 µM (active)
IC50 [2]: 17.6 µM (not active)

EC50 [3]: > 49.7 µM (not active)
EC50 (Wee1-like protein kinase): > 49.7 µM (not active)
SMILES: Cc1cc(Cl)ccc1N=C(S)Nc1ccccn1

SMILES: CSc1nc(O)c(C#N)c(-c2ccccc2)n1
IC50 [4]: > 39.8 µM (not active)
IC50 [5]: 5.34 µM (active)
